How the values were obtained:
[1] = system: cheatgrass; assay: Test B preemergence/postemergence greenhouse plant response rating 0 to 10; format: in vivo, Bromus secalinus; conditions: for Plant response rating, Cheatgrass: 0 to 10 scale
How it was run: (§1)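 Test chemicals were sprayed onto freshly planted seed and, concurrently, onto young plants between the one and four leaf stage. After a twelve- to sixteen-day greenhouse period, each species was visually compared with untreated controls.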

[2] = system: chickweed; assay: as above; format: in vivo, Stellaria media; conditions: 0 to 10 scale
How it was run: as §1

[3] = system: corn; assay: as above; format: in vivo, Zea mays; conditions: for Plant response rating, Corn: 0 to 10 scale
How it was run: as §1

[4] = system: giant foxtail; assay: as above; format: in vivo, Setaria faberii; conditions: 0 to 10 scale
How it was run: as §1

[5] = system: sorghum; assay: as above; format: in vivo, Sorghum bicolor; conditions: 0 to 10 scale
How it was run: as §1

[6] = system: wild buckwheat; assay: as above; format: in vivo, Polygonum convolvulus; conditions: 0 to 10 scale
How it was run: as §1

[7] = system: wild oat; assay: as above; format: in vivo, Avena fatua; conditions: POSTEMERGENCE, 0 to 10 scale
How it was run: as §1

[8] = system: barley; assay: Test C preemergence/postemergence greenhouse plant response rating 0 to 100; format: in vivo, Hordeum vulgare; conditions: POSTEMERGENCE; for Plant response rating Barley Igri: 0 to 100 scale
How it was run: (§2)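 Compounds in non-phytotoxic solvent applied preemergence to sandy loam one day after planting, postemergence at the 1–4 leaf stage, or to ~2.5 cm floodwater over silt loam.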

[9] = system: chickweed; assay: as above; format: in vivo, Stellaria media; conditions: POSTEMERGENCE; for Plant response rating, Chickweed: 0 to 100 scale
How it was run: as §2

[10] = system: cotton; assay: as above; format: in vivo, Gossypium hirsutum; conditions: POSTEMERGENCE; for Plant response rating, Cotton: 0 to 100 scale
How it was run: as §2

[11] = system: downy brome; assay: as above; format: in vivo, Bromus tectorum; conditions: POSTEMERGENCE; for Plant response rating Downy Brome: 0 to 100 scale
How it was run: as §2

[12] = system: lambsquarters; assay: as above; format: in vivo, Chenopodium album; conditions: POSTEMERGENCE; for Plant response rating Lambsquarters: 0 to 100 scale
How it was run: as §2

[13] = system: ryegrass; assay: as above; format: in vivo, Lolium multiflorum; conditions: POSTEMERGENCE; for Plant response rating Ryegrass: 0 to 100 scale
How it was run: as §2

[14] = system: soybean; assay: as above; format: in vivo, Glycine max; conditions: POSTEMERGENCE; for Plant response rating, Soybean: 0 to 100 scale
How it was run: as §2

[15] = system: sugar beet; assay: as above; format: in vivo, Beta vulgaris; conditions: POSTEMERGENCE; for Plant response rating, Sugar beet: 0 to 100 scale
How it was run: as §2

[16] = system: velvetleaf; assay: as above; format: in vivo, Abutilon theophrasti; conditions: POSTEMERGENCE; for Plant response rating, Velvetleaf: 0 to 100 scale
How it was run: as §2

[17] = system: wild buckwheat; assay: as above; format: in vivo, Polygonum convolvulus; conditions: POSTEMERGENCE; for Plant response rating, Wild buckwheat: 0 to 100 scale
How it was run: as §2

[18] = system: duck salad; assay: Test C flood test plant response rating 0 to 100; format: in vivo, Heteranthera limosa; conditions: for Plant response rating Duck salad: flood test species listed under POSTEMERGENCE, 0 to 100 scale
Excerpt: The compounds evaluated in this test were formulated in a non-phytoxic solvent and applied to the soil surface before plant seedlings emerged (preemergence application), to water that covered the soil surface (flood application), and to plants that were in the one-to-four leaf stage (postemergence application). A sandy loam soil was used for the preemergence and postemergence tests, while a silt loam soil was used in the flood test. Water depth was approximately 2.5 cm for the flood test and was maintained at this level for the duration of the test. Plant species in the preemergence and postemergence tests consisted of barley (Hordeum vulgare), bedstraw (Galium aparine), blackgrass (Alopecurus myosuroides), chickweed (Stellaria media), corn (Zea mays), cotton (Gossypium hirsutum), crabgrass (Digitaria sanguinalis), downy brome (Bromus tectorum), giant foxtail (Setaria faberii), lambsquarters (Chenopodium album), morningglory (Ipomoea hederacea), pigweed ([…]), rape (Brassica napus), ryegrass (Lolium multiflorum), sorghum (Sorghum bicolor), soybean (Glycine max), speedwell (Veronica persica), sugar beet (Beta vulgaris), velvetleaf (Abutilon theophrasti), wheat (Triticum aestivum), wild buckwheat (Polygonum convolvulus), and wild oat (Avena fatua). All plant species were planted one day before application of the compound for the preemergence portion-of this test. Plantings of these species were adjusted to produce plants of appropriate size for the post-emergence portion of the test. […] All plant species were grown using normal greenhouse practices. Visual evaluations of injury expressed on treated plants, when compared to untreated controls, were recorded approximately fourteen to twenty one days after application of the test compound. […] A dash (-) response means no test result.

COc1cc(-c2nn3c(c2Cl)CCCC3)c(F)cc1Cl [Compound 29]
8: Plant response rating, Cheatgrass ([1]; POSTEMERGENCE, Rate 200 g/ha) | Plant response rating, Cheatgrass ([1]; Rate 200 g/ha, PREEMERGENCE) | Plant response rating, Chickweed ([2]; POSTEMERGENCE, Rate 200 g/ha) | Plant response rating, Giant foxtail ([4]; PREEMERGENCE, Rate 50 g/ha) | Plant response rating, Wild buckwheat ([6]; PREEMERGENCE, Rate 50 g/ha)
80: Plant response rating Downy Brome ([11]; 62 g/ha) | Plant response rating (0 to 100), Wild buckwheat ([17]; Rate 4 g/ha)
90: Plant response rating Barley Igri ([8]; 250 g/ha) | Plant response rating Ryegrass ([13]; 250 g/ha) | Plant response rating (0 to 100), Sugar beet ([15]; Rate 16 g/ha) | Plant response rating (0 to 100), Wild buckwheat ([17]; Rate 16 g/ha)
20: Plant response rating (0 to 100), Barley Igri ([8]; Rate 4 g/ha) | Plant response rating (0 to 100), Downy Brome ([11]; Rate 4 g/ha) | Plant response rating (0 to 100), Duck salad ([18]; POSTEMERGENCE section, flood test, Rate 4 g/ha)
70: Plant response rating Ryegrass ([13]; 62 g/ha)
3: Plant response rating, Chickweed ([2]; PREEMERGENCE, Rate 50 g/ha) | Plant response rating, Giant foxtail ([4]; POSTEMERGENCE, Rate 50 g/ha)
60: Plant response rating Barley Igri ([8]; 62 g/ha) | Plant response rating, Chickweed ([9]; 62 g/ha) | Plant response rating (0 to 100), Downy Brome ([11]; Rate 16 g/ha) | Plant response rating (0 to 100), Lambsquarters ([12]; Rate 16 g/ha) | Plant response rating (0 to 100), Ryegrass ([13]; Rate 16 g/ha) | Plant response rating, Soybean ([14]; 62 g/ha)
30: Plant response rating (0 to 100), Lambsquarters ([12]; Rate 4 g/ha) | Plant response rating (0 to 100), Ryegrass ([13]; Rate 4 g/ha)
100: Plant response rating, Cotton ([10]; 62 g/ha) | Plant response rating, Cotton ([10]; 250 g/ha) | Plant response rating (0 to 100), Cotton ([10]; Rate 4 g/ha) | Plant response rating (0 to 100), Cotton ([10]; Rate 16 g/ha) | Plant response rating Lambsquarters ([12]; 62 g/ha) | Plant response rating Lambsquarters ([12]; 250 g/ha) | Plant response rating, Soybean ([14]; 250 g/ha) | Plant response rating, Sugar beet ([15]; 62 g/ha) | Plant response rating, Sugar beet ([15]; 250 g/ha) | Plant response rating, Velvetleaf ([16]; 62 g/ha) | Plant response rating, Velvetleaf ([16]; 250 g/ha) | Plant response rating (0 to 100), Velvetleaf ([16]; Rate 16 g/ha) | Plant response rating, Wild buckwheat ([17]; 62 g/ha) | Plant response rating, Wild buckwheat ([17]; 250 g/ha) | Plant response rating Duck salad ([18]; 250 g/ha)
1: Plant response rating, Sorghum ([5]; Rate 200 g/ha, PREEMERGENCE)
40: Plant response rating (0 to 100), Barley Igri ([8]; Rate 16 g/ha) | Plant response rating (0 to 100), Chickweed ([9]; Rate 16 g/ha)
50: Plant response rating (0 to 100), Soybean ([14]; Rate 16 g/ha) | Plant response rating (0 to 100), Velvetleaf ([16]; Rate 4 g/ha)
5: Plant response rating, Cheatgrass ([1]; PREEMERGENCE, Rate 50 g/ha) | Plant response rating, Sorghum ([5]; POSTEMERGENCE, Rate 50 g/ha) | Plant response rating, Wild oat ([7]; Rate 50 g/ha)
0: Plant response rating, Corn ([3]; PREEMERGENCE, Rate 50 g/ha) | Plant response rating, Sorghum ([5]; PREEMERGENCE, Rate 50 g/ha)
95: Plant response rating, Chickweed ([9]; 250 g/ha) | Plant response rating Downy Brome ([11]; 250 g/ha) | Plant response rating Duck salad ([18]; 62 g/ha)
9: Plant response rating, Giant foxtail ([4]; Rate 200 g/ha, PREEMERGENCE)
85: Plant response rating (0 to 100), Duck salad ([18]; Rate 16 g/ha, under POSTEMERGENCE head (flood test species))
4: Plant response rating (0 to 10 scale), Cheatgrass ([1]; POSTEMERGENCE, Rate 50 g/ha)
6: Plant response rating (0 to 10 scale), Corn ([3]; POSTEMERGENCE, Rate 50 g/ha) | Plant response rating, Corn ([3]; Rate 200 g/ha, PREEMERGENCE) | Plant response rating, Giant foxtail ([4]; Rate 200 g/ha, POSTEMERGENCE) | Plant response rating, Sorghum ([5]; Rate 200 g/ha, POSTEMERGENCE)
7: Plant response rating, Chickweed ([2]; Rate 200 g/ha, PREEMERGENCE) | Plant response rating, Corn ([3]; POSTEMERGENCE, Rate 200 g/ha) | Plant response rating, Wild oat ([7]; Rate 200 g/ha)
10: Plant response rating, Wild buckwheat ([6]; POSTEMERGENCE, Rate 50 g/ha) | Plant response rating, Wild buckwheat ([6]; Rate 200 g/ha, POSTEMERGENCE) | Plant response rating, Wild buckwheat ([6]; Rate 200 g/ha, PREEMERGENCE) | Plant response rating (0 to 100), Chickweed ([9]; Rate 4 g/ha) | Plant response rating (0 to 100), Soybean ([14]; Rate 4 g/ha)

— patent publication US6358885B1, “Substituted phenylheterocyclic herbicides” (Mississippi State University, priority 1992, dated 2002)
